Results published in patent US11780845B2 (Relay Therapeutics, Inc., priority 2019, dated 2023).

The compounds below were run on SNU-16 (assay: Cell SNU-16 assay). Details: Homo sapiens; SNU-16 cells.
Type: cell-based

Compound | IC50
C=C(C)C(=O)Nc1ccc(-c2c(-c3ccc(Oc4nccc(C)n4)c(F)c3)c3c(N)ncnc3n2C)cc1 [Example 1028] | ≤ 0.1 µM

Same assay, conditions: SNU-16 cells

IC50 | Compound
≤ 0.1 µM | C#Cc1cc(C)c(-c2c(-c3ccc(Oc4nccc(C)n4)c(F)c3)c3c(C)ncnc3n2C)c(F)n1 [Example 1415]
≤ 0.1 µM | C#Cc1cc(C)c(-c2c(-c3ccc(Oc4nccc(C)n4)c(F)c3)c3c(C)ncnc3n2C)c(C)n1 [Example 1410]
≤ 0.1 µM | C#Cc1ncc(-c2c(-c3ccc(Oc4nccc(C)n4)c(F)c3)c3c(N)ncnc3n2C(C)C)c(C)c1F (atropisomer, axis not shown) [Example 1361]
≤ 0.1 µM | C#Cc1cc(C)c(-c2c(-c3ccc(Oc4nccc(C)n4)c(F)c3)c3c(N)ncnc3n2C)c(F)n1 (atropisomer, axis not shown) [Example 1339]
1 to 100 µM | C=C(C)C(=O)Nc1cc(C)c(-c2c(C3=CC[C@H](C(=O)N4CCCC4)CC3)c3c(N)ncnc3n2C)c(C)c1 (single isomer, unassigned) [Example 1487]
≤ 0.1 µM | C#Cc1cc(OC)c(-c2c(-c3ncc(Oc4nccc(C)n4)cc3F)c3c(N)ncnc3n2C)cn1 [Example 1489]
≤ 0.1 µM | C#Cc1cc(C)c(-c2c(C3=CC[C@H](C(=O)N4CCC[C@H]4C)CC3)c3c(N)ncnc3n2C)c(F)n1 (atropisomer, axis not shown) [Example 1349]
≤ 0.1 µM | C#Cc1cc(C)c(-c2c(-c3ccc(Oc4nccc(C)n4)c(F)c3)c3c(C)ncnc3n2C)c(C)n1 [Example 1409]
≤ 0.1 µM | C#Cc1cc(C)c(-c2c(C3=CC[C@H](C(=O)N4CCC[C@H]4C#N)CC3)c3c(N)ncnc3n2C)c(C)n1 (atropisomer, axis not shown) [Example 1470]
≤ 0.1 µM | C#Cc1cc(C)c(-c2c(-c3ccc(Oc4nccc(C)n4)c(F)c3)c3c(N)ncnc3n2C)c(C)n1 (atropisomer, axis not shown) [Example 1342]
1 to 100 µM | C=C(C)C(=O)Nc1cc(C)c(-c2c(C3=CC[C@@H](C(=O)N4CCCC4)CC3)c3c(N)ncnc3n2C)c(C)c1 (single isomer, unassigned) [Example 1485]
≤ 0.1 µM | C#Cc1cc(C)c(-c2c(-c3ccc(Oc4nccc(C)n4)c(F)c3)c3c(C)ncnc3n2C)c(F)n1 [Example 1414]
≤ 0.1 µM | C#Cc1cc(C)c(-c2c(-c3ccc(Oc4nccc(C)n4)c(F)c3)c3c(N)ncnc3n2C(C)C)cn1 (atropisomer, axis not shown) [Example 1308]
≤ 0.1 µM | C#Cc1cc(OC)c(-c2c(C3=CC[C@H](C(=O)N4CCC[C@H]4C#N)CC3)c3c(C)ncnc3n2C)c(C)n1 [Example 1474]
≤ 0.1 µM | C#Cc1cc(C)c(-c2c(-c3ncc(Oc4nccc(C)n4)cc3F)c3c(N)ncnc3n2C)c(C)n1 (atropisomer, axis not shown) [Example 1493]
≤ 0.1 µM | C#Cc1cc(C)c(-c2c(-c3ccc(Oc4nccc(C)n4)c(F)c3)c3c(N)ncnc3n2C)c(C)n1 (atropisomer, axis not shown) [Example 1344]
≤ 0.1 µM | C#Cc1cc2c(cn1)-c1c(-c3ccc(Oc4nccc(C)n4)c(F)c3)c3c(N)ncnc3n1CCO2 [Example 1494]
≤ 0.1 µM | C#Cc1cc(C)c(-c2c(C3=CC[C@@H](C(=O)N4CCC[C@H]4C#N)CC3)c3c(N)ncnc3n2C)c(C)n1 (atropisomer, axis not shown) [Example 1472]
≤ 0.1 µM | C#Cc1cc(C)c(-c2c(-c3ccc(Oc4nccc(C)n4)c(F)c3)c3c(N)ncnc3n2C(C)C)cn1 (atropisomer, axis not shown) [Example 1307]
≤ 0.1 µM | C#Cc1cc(C)c(-c2c(-c3ccc(Oc4nccc(C)n4)c(F)c3)c3c(N)ncnc3n2C)c(F)n1 (atropisomer, axis not shown) [Example 1340]
≤ 0.1 µM | C#Cc1ncc(-c2c(-c3ccc(Oc4nccc(C)n4)c(F)c3)c3c(N)ncnc3n2C(C)C)c(C)c1F (atropisomer, axis not shown) [Example 1360]

More lines, now with the values behind:

Compound | IC50
C=CC(=O)Nc1ccc(-c2c(C3=CC[C@H](C(=O)N4CCCC4)CC3)c3c(N)ncnc3n2C)cc1 (single isomer, unassigned) [Example 1049] | ≤ 0.1 µM
C#Cc1ccc(-c2c(-c3ccc(Oc4nccc(C)n4)c(F)c3)c3c(N)ncnc3n2C(C)C)c(C)n1 (atropisomer, axis not shown) [Example 1258] | ≤ 0.1 µM
C=CC(=O)Nc1ccc(-c2c(-c3ccc(Oc4nccc(C)n4)c(F)c3)c3c(C)ncnc3n2C)c(C)c1 [Example 1127] | ≤ 0.1 µM
C=CC(=O)Nc1ccc(-c2c(C3=CC[C@@H](C(=O)N4CCCC4)CC3)c3c(N)ncnc3n2C)cc1 (single isomer, unassigned) [Example 1051] | ≤ 0.1 µM
C#Cc1ncc(-c2c(C3=CC[C@H](C(=O)N4CCCC4)CC3)c3c(C)ncnc3n2C)c(C)n1 [Example 1179] | ≤ 0.1 µM
C#Cc1ccc(-c2c(-c3ccc(Oc4nccc(C)n4)c(F)c3)c3c(N)ncnc3n2C(C)C)c(C)n1 (atropisomer, axis not shown) [Example 1259] | ≤ 0.1 µM

The compounds below were run against FGFR2 (Homo sapiens (Human), UniProt P21802) (assay: Biochemical FGFR2 Caliper assay). Details: not given.
Sequence of FGFR2 (P21802 22-821): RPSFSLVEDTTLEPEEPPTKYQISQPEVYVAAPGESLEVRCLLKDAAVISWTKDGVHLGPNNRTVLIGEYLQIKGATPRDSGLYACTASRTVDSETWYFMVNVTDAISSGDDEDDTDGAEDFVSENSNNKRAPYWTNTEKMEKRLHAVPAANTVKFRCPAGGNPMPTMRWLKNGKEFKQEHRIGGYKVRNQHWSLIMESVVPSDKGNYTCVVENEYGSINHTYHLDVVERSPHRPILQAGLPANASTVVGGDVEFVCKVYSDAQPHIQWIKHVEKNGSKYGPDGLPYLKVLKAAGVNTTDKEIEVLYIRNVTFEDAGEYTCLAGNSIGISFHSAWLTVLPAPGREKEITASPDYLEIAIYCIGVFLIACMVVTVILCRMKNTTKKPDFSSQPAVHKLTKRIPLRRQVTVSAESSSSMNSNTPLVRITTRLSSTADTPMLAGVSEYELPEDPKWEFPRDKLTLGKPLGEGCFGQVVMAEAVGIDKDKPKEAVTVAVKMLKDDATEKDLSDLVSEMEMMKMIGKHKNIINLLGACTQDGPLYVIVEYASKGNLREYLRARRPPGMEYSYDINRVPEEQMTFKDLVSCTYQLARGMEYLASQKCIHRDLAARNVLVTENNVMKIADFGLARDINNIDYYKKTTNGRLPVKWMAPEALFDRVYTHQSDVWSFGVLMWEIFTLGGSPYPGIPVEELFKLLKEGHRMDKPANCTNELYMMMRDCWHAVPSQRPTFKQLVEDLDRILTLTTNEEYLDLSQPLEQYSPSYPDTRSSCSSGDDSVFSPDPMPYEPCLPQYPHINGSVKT

IC50 | Compound
0.1 to 0.25 µM | C=C(C)C(=O)Nc1ccc(-c2c(-c3ccc(-c4noc(C5CC5)n4)cc3)c3c(N)ncnc3n2C)cn1 [Example 1362]
< 0.1 µM | C#Cc1cc(OC)c(-c2c(-c3ncc(Oc4nccc(C)n4)cc3F)c3c(N)ncnc3n2C)c(C)n1 [Example 1451]

The next lines start with the compound.

Compound | IC50
C=CC(=O)Nc1ccc(-c2c(C3=CC[C@H](C(=O)N4CCCC4)CC3)c3c(N)ncnc3n2C)c(C)c1 (single isomer, unassigned) [Example 1101] | < 0.1 µM
C=C(C)C(=O)Nc1ccc(-c2c(C3=CCC(c4nc(C)no4)CC3)c3c(N)ncnc3n2C)cc1 (stereo not drawn) [Example 1222] | 1 to 100 µM
C=C(C)C(=O)Nc1cc(Cl)c(-c2c(-c3ccc(Oc4nccc(C)n4)cc3)c3c(N)ncnc3n2C)cc1F [Example 1076] | < 0.1 µM
C#Cc1ncc(-c2[nH]c3ncnc(N)c3c2-c2ccc(Oc3nccc(C)n3)cc2)c(C)n1 [Example 1159] | 0.25 to 1 µM
C#Cc1ncc(-c2c(-c3ccc(Oc4nccc(C)n4)cc3)c3c(C)ncnc3n2C)c(C)n1 [Example 1100] | 0.1 to 0.25 µM
C=CC(=O)Nc1ccc(-c2c(-c3ccc(Oc4ccccc4)cc3)c3c(C)ncnc3n2C)cc1 [Example 1225] | 0.25 to 1 µM
C=C(C)C(=O)Nc1ccc(-c2c(-c3cc4ccccc4s3)c3c(N)ncnc3n2C)cc1 [Example 1209] | 0.25 to 1 µM
C=C(C)C(=O)Nc1ccc(-c2c(C#Cc3cc(OC)cc(OC)c3)c3c(N)ncnc3n2C)cc1 [Example 1152] | 1 to 100 µM
C=C(C)C(=O)Nc1ccc(-c2c(C3=CCC(c4ccccc4)CC3)c3c(N)ncnc3n2C)cc1 (stereo not drawn) [Example 1227] | 1 to 100 µM
Cn1c(-c2ccc(C#N)cc2)c(-c2ccccc2)c2c(N)ncnc21 [Example 1173] | 1 to 100 µM
C=C(C)C(=O)Nc1ccc(-c2c(-c3ccc(-c4nc(C)no4)cc3)c3c(N)ncnc3n2C)cc1 [Example 1244] | 1 to 100 µM
C=CC(=O)Nc1ccc(-c2c(-c3ccc(Oc4ccccc4)cc3)c3c(C)ncnc3n2C(C)C)cc1 [Example 1218] | 1 to 100 µM
C=C(C)C(=O)Nc1ccc(-c2c(-c3cc(-c4ccccc4)cs3)c3c(N)ncnc3n2C)cc1 [Example 1221] | 0.25 to 1 µM
C=CC(=O)Nc1ccc(-c2c(-c3ccc4cc[nH]c4c3)c3c(N)ncnc3n2C)cc1 [Example 1147] | 1 to 100 µM
C#Cc1ncc(-c2c(-c3ccc(Oc4nccc(C)n4)cc3)c3c(N)ncnc3n2C)cc1OC [Example 1178] | 1 to 100 µM
